Assay results taken from patent US20060002870A1 (priority 2004, published 2006).

Test system: skin
Experiment: Clinical study of intensity and tonality of self-tanning with merospheres, empty liposomes and ursolic acid (Chromameter, forearms)
Type: in vivo, human
Settings: added to 3% DHA, 5% pentylene glycol; 5 hours and 24 hours; FIG. 7
Description: This clinical study is designed to investigate the intensity and tonality of self-tanning with a formulation containing different combination of merospheres, empty liposomes and ursolic acid. The following materials are tested: A total of […] panelists participate in the study. The panel is divided in seven groups of 7-8 corresponding to the seven test materials. The panelists apply the “control” formulation containing 3% DHA-PG on the right arm and the assigned test material on the other arm. For each panelist exact amounts (800 μl each) of the test materials are dispensed on the forearms and blended in by the panelists. Color measurements are obtained with the Chromameter before treatment and 5 hours and 24 hours. Decrease in reflectance and increase in red coloration and yellow coloration (ΔL*, Δa* and Δb* values) obtained from the Chromameter are calculated as compared to baseline skin color. Total color change ΔE* is calculated for each time point as follows: ΔE*={overscore (V(ΔL*)^2+(Δa*)^2+(Δb)}*)^2 For assessing the tonality, Chroma (ΔC*) is calculated and plotted against reflectance (ΔL* values) within the “Natural Universe of Tan”. This Natural Universe is the range of color of tan obtained by multiple or single exposures to the sun.

C[C@H]1[C@H](C)CC[C@]2(C(=O)O)CC[C@]3(C)C(=CC[C@@H]4[C@@]5(C)CC[C@H](O)C(C)(C)[C@@H]5CC[C@]43C)[C@H]12 [ursolic acid]
Self-tanning effect (ΔE*): neither addition of empty liposomes nor ursolic acid alone changes the self-tanning effect
